Test results: patent publication US20240115670A1, “FIBROBLAST ACTIVATION PROTEIN MODULATION TO ALTER IMMUNE CELL MIGRATION AND TUMOR INFILTRATION” (Georgetown University, priority 2021, published 2024)

Experiments:
NK92-GFP cells = assay: NK92-GFP infiltration into cell clusters embedded in 3D matrix; format: cell-based, human; details: 10 uM Cpd60
Procedure: 3D clusters were generated, embedded and stained as previously described. In brief, clusters were generated by plating 1,000 cells per well into 96-well Nunclon Sphera low adhesion plates (Thermo Scientific, cat #174925) and incubated overnight at 37° C. The following day, 6 clusters were embedded into an ECM containing 2,000 NK cells and plated into one well of a Nunc Lab-Tek II 8-well chamber slide (ThermoScientific, cat #154534PK). The ECM mixture consisted of 20% growth factor reduced Matrigel (Corning, 10-12 mg/ml stock concentration, #354230) and 80% rat tail collagen type I at 3 mg/mL (gibco, A1048301). Cells were either imaged for the following 24 hours every 30 minutes using the Zeiss LSM800 scanning confocal microscope or allowed to incubate overnight at 37° C. After 24 hours, cells in matrix were fixed with 5.4% formalin for 1 hour, permeabilized with 0.5% Triton-X and blocked using goat serum. For invasion assays, NK-92-GFP cells were stained with anti-GFP (ThermoFisher, cat #A-11122). For the cell lysis assays clusters were stained using anti-cleaved caspase 3 (Cell Signaling, cat #9661). Hoechst 33342, phalloidin, and secondary antibodies labeled with Alexa Fluor 488 nm, 546 nm, 647 nm, or 680 nm (Invitrogen) were used.
3D clusters were generated, embedded and stained as previously described (34, 35). In brief, clusters were generated by plating 1,000 cells per well into 96-well Nunclon Sphera low adhesion plates (Thermo Scientific, cat #174925) and incubated overnight at 37° C. The following day, 6 clusters were embedded into an ECM containing 2,000 NK cells were plated into one well of a Nunc Lab-Tek II 8-well chamber slide (ThermoScientific, cat #154534PK). To ensure equal distribution of NK cells in Matrigel, the NK cells were first suspended in the Matrigel stock, which was then aliquoted for individual cluster embedding. The ECM mixture consisted of 20% growth factor reduced Matrigel (Corning, 10-12 mg/ml stock concentration, #354230) and 80% rat tail collagen type I at 3 mg/mL (Gibco, A1048301). […]

PANC-1 cells = assay: NK cell lysis of PANC-1 cells in 2D cocultures; format: cell-based, human
primary human NK cells = assay: 2D live imaging of primary NK cell migration on EL08.1D2 stromal cells; format: cell-based; details: 10 uM Cpd60 vs vehicle; three donors
Procedure: 2D migration studies were done as previously reported. In brief, EL08.1D2 stromal cells were grown to a confluent monolayer on Lab-Tek chamber slides pre-coated with 0.1% gelatin (Stemcell Technologies). […] Cells were imaged in 96-well ImageLock plates (Essen Bioscience) on the IncuCyte ZOOM Live-Cell Analysis System (Essen Bioscience) at 37° C. every 2 min in the phase-contrast mode (10× objective). Tracking of live cells was done using the manual tracking feature in Volocity or FIJI. Tracks were plotted using the Chemotaxis plugin of FUI. Cells that were in the field of imaging for fewer than two frames were discarded, as were cells which were non-adherent or floating. EL08.1D2 cells were used as de facto fiducial markers to ensure that neither they or the microscope stage was drifting and causing apparent NK cell movement.
Length and displacement measurements were derived directly from tracked cells and graphed using GraphPad software. Velocity data was obtained by dividing the total track length by the time of imaging.
2D migration studies were done as previously reported (31, 32). In brief, EL08.1D2 stromal cells were grown to a confluent monolayer on flat-bottomed 96 well ImageLock plates (Essen Bioscience) pre-coated with 0.1% gelatin (Stemcell Technologies). […] Freshly isolated human NK cells were imaged in 96-well on the IncuCyte ZOOM Live-Cell Analysis System (Essen Bioscience) at 37° C. every 2 min in the phase-contrast mode (10× objective). Tracking of live cells was done using the manual tracking feature in Fiji (33). Tracks were plotted using the Chemotaxis plugin of FIJI. Cells that were in the field of imaging for fewer than two frames were discarded, as were cells which were non-adherent or floating. EL08.1D2 cells were used as de facto fiducial markers to ensure that neither they or the microscope stage was drifting and causing apparent NK cell movement. Length and displacement measurements were derived directly from tracked cells and graphed using GraphPad software. Velocity data was obtained by dividing the total track length by the time of imaging.

With `N#C[C@@H]1CC(F)(F)CN1C(=O)CNC(=O)c1ccnc2ccccc12` [Cpd60] the “NK92-GFP cell infiltration into PANC-1 clusters embedded in matrix” value (NK92-GFP cells; 24-hour coculture) was “significantly reduced”, the “NK92-GFP cell infiltration into PSC clusters embedded in matrix” value (NK92-GFP cells; 24-hour coculture) was “significantly reduced” and the cluster size (NK92-GFP cells; 80% collagen/20% Matrigel) was “no effect”. For the same molecule, the “PANC-1 cell apoptosis in 2D cell cocultures with NK92” value (PANC-1 cells) was “no effect”, the “Euclidian distance traveled by NK cells” value (primary human NK cells) was “no significant impact” and the NK cell velocity (primary human NK cells) was “significantly reduced”. For the same molecule, the “accumulated distance traveled by NK cells” value (primary human NK cells) was “significantly reduced”.
